Assay results from ChEMBL document CHEMBL1201861, “Genomics of Drug Sensitity in Cancer screening data, Wellcome Trust Sanger Institute”.

Key:
Assay in all cases: cells
CTB-1 = type: functional, cell-based; details: Homo sapiens
Description: SANGER: Inhibition of human CTB-1 cell growth in a cell viability assay.

CTV-1 = type: functional, cell-based; details: Homo sapiens;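 note: growth inhibition of the cell line, read out with a cell viability assay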
Description: SANGER: Inhibition of human CTV-1 cell growth in a cell viability assay.

Ca-Ski = type: functional, cell-based; details: Homo sapiens;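 note: cell viability assay measuring inhibition of Ca-Ski cell growth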
Description: SANGER: Inhibition of human Ca-Ski cell growth in a cell viability assay.

D-263MG = type: functional, cell-based, Homo sapiens; details: Homo sapiens, D-263MG
Description: SANGER: Inhibition of human D-263MG cell growth in a cell viability assay.

DMS-114 = type: functional, cell-based, Homo sapiens; details: Homo sapiens, DMS-114
ETK-1 = type: functional, cell-based, Homo sapiens; details: Homo sapiens, ETK-1;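 note: growth inhibition of human ETK-1 cells, read out with a cell viability assay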
Description: SANGER: Inhibition of human ETK-1 cell growth in a cell viability assay.

G-401 = type: functional, cell-based, Homo sapiens; details: Homo sapiens, G-401
Description: SANGER: Inhibition of human G-401 cell growth in a cell viability assay.

GCT = type: functional, cell-based, Homo sapiens; details: Homo sapiens, GCT;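 note: GCT cell line proliferation inhibition, read out with a cell viability assay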
Description: SANGER: Inhibition of human GCT cell growth in a cell viability assay.

HCC1806 = type: functional, cell-based, Homo sapiens; details: Homo sapiens, HCC1806;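 note: growth inhibition of the cancer cell line, determined with a cell viability assay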
Description: SANGER: Inhibition of human HCC1806 cell growth in a cell viability assay.

HEC-1 = type: functional, cell-based, Homo sapiens; details: Homo sapiens, HEC-1;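 note: growth inhibition of the cell line, read out with a cell viability assay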
Description: SANGER: Inhibition of human HEC-1 cell growth in a cell viability assay.

HT = type: functional, cell-based; details: Homo sapiens
Description: SANGER: Inhibition of human HT cell growth in a cell viability assay.

HT1197 = type: functional, cell-based, Homo sapiens, HT-1197; details: Homo sapiens, HT1197
Description: SANGER: Inhibition of human HT-1197 cell growth in a cell viability assay.

IA-LM = type: functional, cell-based, Homo sapiens; details: Homo sapiens, IA-LM;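 note: cell viability assay measuring growth inhibition of human IA-LM cells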
Description: SANGER: Inhibition of human IA-LM cell growth in a cell viability assay.

KALS-1 = type: functional, cell-based, Homo sapiens; details: Homo sapiens, KALS-1;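 note: growth inhibition of KALS-1 cells, determined with a cell viability assay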
Description: SANGER: Inhibition of human KALS-1 cell growth in a cell viability assay.

KP-4 = type: functional, cell-based, Homo sapiens; details: Homo sapiens, KP-4; read-out: IC50;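 note: human KP-4 cells, with growth inhibition read out through a cell viability assay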
Description: SANGER: Inhibition of human KP-4 cell growth in a cell viability assay.

KYSE-520 cell line = type: functional, cell-based, Homo sapiens; details: Homo sapiens, KYSE-520;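 note: growth inhibition of human KYSE-520 cells, read out with a viability assay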
Description: SANGER: Inhibition of human KYSE-520 cell growth in a cell viability assay.

LAMA-84 = type: functional, cell-based; details: Homo sapiens;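 note: growth inhibition of LAMA-84 cells, read out with a cell viability assay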
Description: SANGER: Inhibition of human LAMA-84 cell growth in a cell viability assay.

LB2241-RCC = type: functional, cell-based, Homo sapiens; details: Homo sapiens, LB2241-RCC;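 note: cell viability assay measuring how strongly the cultured human renal carcinoma line is prevented from growing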
Description: SANGER: Inhibition of human LB2241-RCC cell growth in a cell viability assay.

LB373-MEL-D = type: functional, cell-based, Homo sapiens; details: Homo sapiens, LB373-MEL-D;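 note: growth inhibition of the cell line, read out in a cell viability assay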
Description: SANGER: Inhibition of human LB373-MEL-D cell growth in a cell viability assay.

Lu-65 = type: functional, cell-based; details: Homo sapiens;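 note: growth inhibition of Lu-65 cancer cells, read out by a cell viability assay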
Description: SANGER: Inhibition of human LU-65 cell growth in a cell viability assay.

MCF7 = type: functional, cell-based, Homo sapiens; details: Homo sapiens, MCF7;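 note: growth inhibition of human MCF7 cells, read out with a cell viability assay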
Description: SANGER: Inhibition of human MCF7 cell growth in a cell viability assay.

MG-63 = type: functional, cell-based, Homo sapiens; details: Homo sapiens, MG-63;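 note: growth inhibition of human MG-63 cells, read out with a cell viability assay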
Description: SANGER: Inhibition of human MG-63 cell growth in a cell viability assay.

NB12 = type: functional, cell-based, Homo sapiens; details: Homo sapiens, NB12;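 note: growth inhibition of human NB12 cells, read out by a cell viability assay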
Description: SANGER: Inhibition of human NB12 cell growth in a cell viability assay.

NB13 = type: functional, cell-based, Homo sapiens; details: Homo sapiens, NB13;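 note: cell viability readout measuring growth inhibition of human NB13 cells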
Description: SANGER: Inhibition of human NB13 cell growth in a cell viability assay.

NB69 = type: functional, cell-based, Homo sapiens; details: Homo sapiens, NB69;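 note: growth inhibition of NB69 cells, determined by a cell viability assay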
Description: SANGER: Inhibition of human NB69 cell growth in a cell viability assay.

NCI-H1395 = type: functional, cell-based, Homo sapiens; details: Homo sapiens, NCI-H1395;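 note: cell viability assay read-out quantifying reduced proliferation of human NCI-H1395 cells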
Description: SANGER: Inhibition of human NCI-H1395 cell growth in a cell viability assay.

NCI-H1563 = type: functional, cell-based, Homo sapiens; details: Homo sapiens, NCI-H1563;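 note: growth inhibition of human NCI-H1563 cells, read out with a cell viability assay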
Description: SANGER: Inhibition of human NCI-H1563 cell growth in a cell viability assay.

NCI-H1838 = type: functional, cell-based, Homo sapiens; details: Homo sapiens, NCI-H1838;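 note: growth inhibition of NCI-H1838 cells, determined with a cell viability readout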
Description: SANGER: Inhibition of human NCI-H1838 cell growth in a cell viability assay.

NCI-H2087 = type: functional, cell-based, Homo sapiens; details: Homo sapiens, NCI-H2087;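 note: growth inhibition determined with a cell viability readout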
Description: SANGER: Inhibition of human NCI-H2087 cell growth in a cell viability assay.

NCI-H2122 = type: functional, cell-based, Homo sapiens; details: Homo sapiens, NCI-H2122;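 note: growth inhibition of the cells, read out with a cell viability assay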
Description: SANGER: Inhibition of human NCI-H2122 cell growth in a cell viability assay.

NCI-H2126 = type: functional, cell-based, Homo sapiens; details: Homo sapiens, NCI-H2126;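 note: growth inhibition of the cancer cell line, determined with a cell viability readout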
Description: SANGER: Inhibition of human NCI-H2126 cell growth in a cell viability assay.

NEC8 = type: functional, cell-based, Homo sapiens; details: Homo sapiens, NEC8;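 note: growth inhibition of human NEC8 cells, read out by a cell viability assay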
Description: SANGER: Inhibition of human NEC8 cell growth in a cell viability assay.

OS-RC-2 = type: functional, cell-based, Homo sapiens; details: Homo sapiens, OS-RC-2;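 note: growth inhibition of human OS-RC-2 cells, measured by a cell viability assay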
Description: SANGER: Inhibition of human OS-RC-2 cell growth in a cell viability assay.

SAS = type: functional, cell-based, Homo sapiens; details: Homo sapiens, SAS;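 note: growth inhibition of SAS cells, read out with a cell viability assay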
Description: SANGER: Inhibition of human SAS cell growth in a cell viability assay.

SK-MEL-24 = type: functional, cell-based; details: Homo sapiens;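 note: growth inhibition read out by a cell viability assay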
Description: SANGER: Inhibition of human SK-MEL-24 cell growth in a cell viability assay.

SK-MEL-28 = type: functional, cell-based; details: Homo sapiens;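 note: growth inhibition of human SK-MEL-28 cells, read out with a cell viability assay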
Description: SANGER: Inhibition of human SK-MEL-28 cell growth in a cell viability assay.

SK-N-FI = type: functional, cell-based, Homo sapiens; details: Homo sapiens, SK-N-FI;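 note: cell viability assay measuring growth inhibition of human SK-N-FI cells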
Description: SANGER: Inhibition of human SK-N-FI cell growth in a cell viability assay.

SK-NEP-1 = type: functional, cell-based; details: Homo sapiens;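 note: growth inhibition of human SK-NEP-1 cells, read out by a cell viability assay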
Description: SANGER: Inhibition of human SK-NEP-1 cell growth in a cell viability assay.

SW1783 = type: functional, cell-based; details: Homo sapiens;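 note: cell growth inhibition measured with a viability assay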
Description: SANGER: Inhibition of human SW1783 cell growth in a cell viability assay.

SW626 = type: functional, cell-based, Homo sapiens; details: Homo sapiens, SW626;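 note: growth inhibition of SW626 cells, measured with a cell viability assay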
Description: SANGER: Inhibition of human SW626 cell growth in a cell viability assay.

SW684 = type: functional, cell-based, Homo sapiens; details: Homo sapiens, SW684;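 note: growth inhibition of human SW684 cells, measured by a cell viability assay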
Description: SANGER: Inhibition of human SW684 cell growth in a cell viability assay.

SW948 = type: functional, cell-based, Homo sapiens; details: Homo sapiens, SW948;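 note: growth inhibition of SW948 cells, read out with a cell viability assay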
Description: SANGER: Inhibition of human SW948 cell growth in a cell viability assay.

SW 962 = type: functional, cell-based, Homo sapiens; details: Homo sapiens, SW 962;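 note: growth inhibition of human SW962 cells, read out by a cell viability assay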
Description: SANGER: Inhibition of human SW962 cell growth in a cell viability assay.

5637 = type: functional, cell-based, Homo sapiens; details: Homo sapiens
Description: SANGER: Inhibition of human 5637 cell growth in a cell viability assay.

A101D = type: functional, cell-based, Homo sapiens; details: Homo sapiens, A101D;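 note: growth inhibition of the cell line, measured with a viability assay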
Description: SANGER: Inhibition of human A101D cell growth in a cell viability assay.

ALL-PO = type: functional, cell-based; details: Homo sapiens;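 note: growth inhibition of ALL-PO cells, read out by a cell viability assay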
Description: SANGER: Inhibition of human ALL-PO cell growth in a cell viability assay.

BHY = type: functional, cell-based, Homo sapiens; details: Homo sapiens, BHY;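 note: cell growth inhibition read out by a viability assay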
Description: SANGER: Inhibition of human BHY cell growth in a cell viability assay.

BT-20 = type: functional, cell-based, Homo sapiens; details: Homo sapiens, BT-20;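 note: cell viability assay measuring suppression of growth in human BT-20 cells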
Description: SANGER: Inhibition of human BT-20 cell growth in a cell viability assay.

Becker = type: functional, cell-based, Homo sapiens; details: Homo sapiens, Becker;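 note: growth inhibition of Becker cells, read out with a cell viability assay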
Description: SANGER: Inhibition of human Becker cell growth in a cell viability assay.

BXPC-3 = type: functional, cell-based, Homo sapiens; details: Homo sapiens, BXPC-3;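 note: growth inhibition of human BxPC-3 cells, read out by a cell viability assay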
Description: SANGER: Inhibition of human BxPC-3 cell growth in a cell viability assay.

UACC-893 = type: functional, cell-based, Homo sapiens; details: Homo sapiens, UACC-893
Description: SANGER: Inhibition of human UACC-893 cell growth in a cell viability assay.

YKG-1 = type: functional, cell-based, Homo sapiens; details: Homo sapiens, YKG-1;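 note: cell growth inhibition, read out with a viability assay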
Description: SANGER: Inhibition of human YKG-1 cell growth in a cell viability assay.

Measured: IC50

CCOc1nc(NC(=O)Cc2cc(OC)ccc2OC)cc(N)c1C#N
6.58 µM: LB2241-RCC
> 10 µM: CTB-1 | CTV-1 | Ca-Ski | D-263MG | DMS-114 | ETK-1 | G-401 | GCT | HCC1806 | HEC-1 | HT | HT1197 | IA-LM | KALS-1 | KP-4 | KYSE-520 cell line | LAMA-84 | LB373-MEL-D | Lu-65 | MCF7 | MG-63 | NB12 | NB13 | NB69 | NCI-H1395 | NCI-H1563 | NCI-H1838 | NCI-H2087 | NCI-H2122 | NCI-H2126 | NEC8 | OS-RC-2 | SAS | SK-MEL-24 | SK-MEL-28 | SK-N-FI | SK-NEP-1 | SW1783 | SW626 | SW684 | SW948 | SW 962 | 5637 | A101D | ALL-PO | BHY | BT-20 | Becker | BXPC-3 | UACC-893 | YKG-1

CC(=O)O[C@@H]1[C@@H](OC(C)=O)[C@@H](O)[C@H](Oc2c(-c3ccc(O)cc3)oc3cc(O)cc(O)c3c2=O)O[C@H]1C
> 10 µM: CTV-1 | Ca-Ski | D-263MG | DMS-114 | ETK-1 | G-401 | GCT | HCC1806 | HEC-1 | HT | HT1197 | IA-LM | KALS-1 | KP-4 | KYSE-520 cell line | LAMA-84 | LB2241-RCC | LB373-MEL-D | Lu-65 | MCF7 | MG-63 | NB12 | NB13 | NB69 | NCI-H1395 | NCI-H1563 | NCI-H1838 | NCI-H2087 | NCI-H2122 | NCI-H2126 | NEC8 | OS-RC-2 | SAS | SK-MEL-24 | SK-MEL-28 | SK-N-FI | SK-NEP-1 | SW1783 | SW626 | SW684 | SW948 | SW 962 | 5637 | A101D | ALL-PO | BHY | BT-20 | Becker | BXPC-3 | UACC-893 | YKG-1
7.32 µM: CTB-1

O=c1cc(-c2cccc3c2Sc2ccccc2S3)oc(N2CCOCC2)c1 [KU-55933]
> 10 µM: CTB-1 | Ca-Ski | D-263MG | DMS-114 | ETK-1 | G-401 | GCT | HCC1806 | HEC-1 | HT | HT1197 | IA-LM | KALS-1 | KP-4 | KYSE-520 cell line | LB2241-RCC | LB373-MEL-D | MCF7 | MG-63 | NB12 | NB13 | NB69 | NCI-H1395 | NCI-H1563 | NCI-H1838 | NCI-H2087 | NCI-H2122 | NCI-H2126 | NEC8 | OS-RC-2 | SAS | SK-MEL-24 | SK-MEL-28 | SK-N-FI | SK-NEP-1 | SW1783 | SW626 | SW684 | SW948 | SW 962 | 5637 | A101D | ALL-PO | BHY | BT-20 | Becker | BXPC-3 | UACC-893 | YKG-1
4.58 µM: LAMA-84
